In data set [1] the test system is bronchial and coronary dilation. Particulars: in words; cited from earlier work.
Data set [2] has as its system Type IV PDE isolated from bovine tracheal smooth muscle (PDE IV). As to the kind of experiment: Type IV PDE activity (hydrolysis of [^3 H]-cyclic AMP). In kind it is biochemical. Particulars: cyclic AMP 0.2 mM, 2.5% dimethyl sulfoxide, * = disubstituted analog. The source says: In addition, the PDE IV inhibitory compounds of the present invention may be examined for their PDE IV inhibitory effects via the techniques set forth in the following examples, wherein the ability of the compounds to inhibit PDE IV isolated from bovine tracheal smooth muscle is set forth.
The Type IV PDE is isolated from bovine tracheal smooth muscle using a procedure similar to that previously described by Silver, P. J. et al., Eur. J. Pharmacol. 150:85,1988.(1). Briefly, smooth muscle from bovine trachea is minced and homogenized using a polytron in 10 volumes of an extraction buffer containing 10 mM Tris-acetate (pH 7.5), 2 mM magnesium chloride, 1 mM dithiothreitol and 2,000 units/ml of aprotinin. This and all subsequent procedures are performed at 0-4° C. The homogenate is sonicated and then centrifuged at 48,000×g for 30 minutes. The resulting supernatant is applied to a DEAE Trisacryl M column previously equilibrated with sodium acetate and dithiothreitol. After applications of the sample, the column is washed with sodium acetate/ dithiothreitol, after which the different forms of PDE are eluted from the column using a linear Tris-HCl/NaCl gradient. Fractions containing Type IV PDE are collected, dialyzed and concentrated to 14% of the original volume. The concentrated fractions are diluted to 50% with ethylene glycol and stored at -20° C.
Enzyme activity is assessed by measuring the hydrolysis of [^3 H]-cyclic AMP, as described by Thompson, W. J. et al., Adv. Cyclic Nucleotide Res. 10:69, 1979. The cyclic AMP concentration used in this assay is 0.2 mM, which approximates the Km value. Protein concentration is adjusted to ensure that no more than 15% of the available substrate is hydrolyzed during the incubation period.
All test compounds are dissolved in dimethyl sulfoxide (final concentration of 2.5%). This concentration of dimethyl sulfoxide inhibits enzyme activity by approximately 10%.

Data set [3] has as its system lymphocytes. Particulars: in-vitro, in words; cited from earlier work.
Data set [4] concerns mast cells, basophils, monocytes and eosinophils. Particulars: in-vitro, in words; cited from earlier work.
Data set [5] concerns neutrophils and eosinophils. The following applies: in-vitro, in words; cited from earlier work.
In data set [6] the test system is PDE IV. The following applies: in words, background; cited from earlier work.
For data set [7] the following is noted: in words; cited from earlier work.
In data set [8] the test system is PDE III. Particulars: in words, background; cited from earlier work.

Regarding `Cc1nc2c([nH]1)c(=S)n(C)c(=O)n2C` [1,3,8-trimethyl-6-thioxanthine], the “bronchial and coronary dilator activity” value in data set [1] was “having bronchial and coronary dilator activity”.
With `CCn1c(=S)c2[nH]c(C(C)C)nc2n(CC)c1=O` [1,3-diethyl-8-isopropyl-6-thioxanthine, 1,3-Diethyl-8-isopropyl-6-thioxanthine], half-maximal inhibition in data set [2] (IC50) was put at 1.2 µM.
Turning to `CCc1nc2c([nH]1)c(=S)n(C)c(=O)n2C` [1,3-dimethyl-8-ethyl-6-thioxanthine], the “bronchial and coronary dilator activity” value in data set [1] is “having bronchial and coronary dilator activity”.
Regarding `CCn1c(=O)n(C)c(=S)c2[nH]c(C(C)C)nc21` [3-ethyl-1-methyl-8-isopropyl-6-thioxanthine], half-maximal inhibition in data set [2] (IC50) required 1 µM.
For `CCn1c(=O)[nH]c(=S)c2[nH]c(C(C)C)nc21` [3-ethyl-8-isopropyl-6-thioxanthine], the midpoint of inhibition in data set [2], the IC50, lay at 4.6 µM.
For the molecule `CCCn1c(=O)[nH]c(=S)c2[nH]c(CC)nc21` [3-propyl-8-ethyl-6-thioxanthine], the half-inhibitory concentration (IC50) (commonly the midpoint of a concentration-inhibition curve) in data set [2] is 18.4 µM.
For the molecule `CCCn1c(=S)c2[nH]c(C3CC3)nc2n(CCC)c1=O` [8-Cyclopropyl-1,3-dipropyl-6-thioxanthine], the IC50 in data set [2] worked out at 2.97 µM.
The molecule `CCC(C)Cn1c(=O)n(CC)c(=S)c2[nH]c(C3CC3)nc21` (stereo not shown) [8-Cyclopropyl-1-ethyl-3-(2-methyl-butyl)-6-thioxanthine] returned an IC50 in data set [2] of 1.18 µM.
The molecule `CCC(C)Cn1c(=O)[nH]c(=S)c2[nH]c(C3CC3)nc21` (stereo not shown) [8-cyclopropyl-3-(2-methyl-butyl)-6-thioxanthine] came in with a 50% inhibitory concentration (IC50) in data set [2] of 3.83 µM.
The molecule `CCCn1c(=O)[nH]c(=S)c2[nH]c(C3CC3)nc21` [8-cyclopropyl-3-propyl-6-thioxanthine] yielded a concentration for half-maximal inhibition (IC50) in data set [2] of 4.47 µM.
In turn, `CCCn1c(=S)c2[nH]c(C(C)C)nc2n(CCC)c1=O` [8-isopropyl-1,3-dipropyl-6-thioxanthine, 1,3-Dipropyl-8-isopropyl-6-thioxanthine] yielded an IC50 in data set [2] of 1.67 µM.
`CCCn1c(=O)[nH]c(=S)c2[nH]c(C(C)C)nc21` [8-isopropyl-3-propyl-6-thioxanthine] had a concentration for half-maximal inhibition (IC50) in data set [2] of 3.3 µM.
For `CCCCOc1cc(CC2CNC(=O)N2)ccc1OC` (stereo not shown) [Ro-201724], in data set [3], the “inhibition of mitogen-dependent growth and differentiation” value is recorded as “shown to inhibit”. The “inhibition of mediator synthesis/release” value in data set [4] was “shown to inhibit”. Further, the “inhibition of respiratory burst, chemotaxis and degranulation” value in data set [5] was “shown to inhibit”.
Consider `COc1ccc(C2CNC(=O)C2)cc1OC1CCCC1` (stereo not shown) [Rolipram], for which the “inhibition of mitogen-dependent growth and differentiation” value in data set [3] is recorded as “shown to inhibit”. Besides, the “inhibition of mediator synthesis/release” value in data set [4] was “shown to inhibit”. For the same molecule, the “PDE IV inhibition” value in data set [6] is “selectively inhibit the PDE IV enzyme”. Besides, the “inhibition of respiratory burst, chemotaxis and degranulation” value in data set [5] is listed as “shown to inhibit”.
In the case of `Cn1c(=O)c2[nH]cnc2n(C)c1=O` [Theophylline], the therapeutic index result in data set [7] is “narrow therapeutic index”. Further, in data set [8], the “PDE III inhibition” value is “inhibits both PDE III and PDE IV”. Besides, the “PDE IV inhibition” value in data set [6] is “inhibits both PDE III and PDE IV”.

The record behind these values is patent publication US5977119A, “Trisubstituted thioxanthines” (Euro-Celtique, S.A., priority 1997, dated 1999).
